Assays:
[1] = target: Neuraminidase (Influenza A virus, UniProt A5Z252); assay: Inhibition of Influenza A virus A/Anhui/1/2005(H5N1) neuraminidase using MUNANA as substrate preincubated for 5 to 15 mins followed by substrate addition measured after 30 mins by fluorescence assay
[2] = target: Neuraminidase (Influenza A virus) (UniProt A5Z252); conditions: Influenza A virus (A/Anhui/1/2005(H5N1)); at 100 µM
[3] = target: Neuraminidase (Influenza A virus) (UniProt A5Z252); conditions: Influenza A virus (A/Anhui/1/2005(H5N1)); at 10 µM
[4] = target: T1, Neuraminidase (Influenza A virus, UniProt B4URF0); assay: Inhibition of Influenza A virus A/Anhui/1/2013(H7N9) neuraminidase 150 cavity at 10 uM using MUNANA as substrate preincubated for 5 to 15 mins followed by substrate addition measured after 30 mins by fluorescence assay relative to control
T1 sequence (B4URF0 whole entry): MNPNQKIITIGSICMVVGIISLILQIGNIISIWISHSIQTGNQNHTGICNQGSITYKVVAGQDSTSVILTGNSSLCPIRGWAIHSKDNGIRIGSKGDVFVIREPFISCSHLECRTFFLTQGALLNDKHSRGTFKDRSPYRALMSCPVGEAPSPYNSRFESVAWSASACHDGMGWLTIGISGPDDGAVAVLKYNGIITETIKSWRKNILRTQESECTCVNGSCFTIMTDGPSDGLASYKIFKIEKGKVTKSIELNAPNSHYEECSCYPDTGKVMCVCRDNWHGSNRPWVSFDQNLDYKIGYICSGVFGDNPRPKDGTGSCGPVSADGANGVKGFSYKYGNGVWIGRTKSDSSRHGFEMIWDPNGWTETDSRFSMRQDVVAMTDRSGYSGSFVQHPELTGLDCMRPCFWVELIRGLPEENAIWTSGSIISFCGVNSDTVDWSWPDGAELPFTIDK

[5] = target: T1, Neuraminidase; assay: Inhibition of Influenza A virus A/California/04/2009(H1N1) neuraminidase using MUNANA as substrate preincubated for 5 to 15 mins followed by substrate addition measured after 30 mins by fluorescence assay

SMILES | IC50 [1] [nM] | inhibition [2] [%] | inhibition [3] [%] | other results
CCC(CC)O[C@@H]1C=C(C(=O)O)C[C@H](NC(=O)CN)[C@H]1NC(C)=O | 2670 | – | – | –
CCCC(=O)N[C@H]1CC(C(=O)O)=C[C@@H](OC(CC)CC)[C@@H]1NC(C)=O | – | 66.8 | 14.7 | –
C=CC(=O)N[C@H]1CC(C(=O)O)=C[C@@H](OC(CC)CC)[C@@H]1NC(C)=O | 2980 | – | – | –
CCC(CC)O[C@@H]1C=C(C(=O)O)C[C@H](NC(=O)Cc2ccc(C)cc2)[C@H]1NC(C)=O | – | 57.2 | 10 | –
CCC(CC)O[C@@H]1C=C(C(=O)O)C[C@H](NC(=O)[C@H](O)CCc2ccccc2)[C@H]1NC(C)=O | – | 60.4 | 49.2 | –
CCOC(=O)C1=C[C@@H](OC(CC)CC)[C@H](NC(C)=O)[C@@H](N)C1 | – | 95.5 | 91 | –
CCC(CC)O[C@@H]1C=C(C(=O)O)C[C@H](NC(=O)C(C)C)[C@H]1NC(C)=O | – | 47.6 | 14.2 | –
CCC(CC)O[C@@H]1C=C(C(=O)O)C[C@H](NC(=O)C(F)(F)F)[C@H]1NC(C)=O | 266 | – | – | –
CCC(CC)O[C@@H]1C=C(C(=O)O)C[C@H](NC(=O)CCCc2ccccc2)[C@H]1NC(C)=O | – | 36 | – | –
CCCCC(=O)N[C@H]1CC(C(=O)O)=C[C@@H](OC(CC)CC)[C@@H]1NC(C)=O | – | 11.3 | – | –
CCC(CC)O[C@@H]1C=C(C(=O)O)C[C@H](NC=O)[C@H]1NC(C)=O | 1290 | – | – | –
CCC(CC)O[C@@H]1C=C(C(=O)O)C[C@H](NC(=O)C(F)F)[C@H]1NC(C)=O | 190 | – | – | –
CCC(=O)N[C@H]1CC(C(=O)O)=C[C@@H](OC(CC)CC)[C@@H]1NC(C)=O | – | 84.5 | 47.9 | –
CCC(CC)O[C@@H]1C=C(C(=O)O)C[C@H](NC(=O)/C=C/c2ccccc2)[C@H]1NC(C)=O | – | 50.2 | 14.5 | –
CCC(CC)O[C@@H]1C=C(C(=O)O)C[C@H](NC(=O)CN(C)C)[C@H]1NC(C)=O | – | 58.2 | 30 | –
CCC(CC)O[C@@H]1C=C(C(=O)O)C[C@H](NC(=O)[C@@H](C)N)[C@H]1NC(C)=O | – | 49.3 | 18.8 | –
CCC(CC)O[C@@H]1C=C(C(=O)O)C[C@H](NC(C)=O)[C@H]1NC(C)=O | 238 | – | – | IC50 [4]: 59.5 nM; IC50 [5]: 16.5 nM
CCC(CC)O[C@@H]1C=C(C(=O)O)C[C@H](NC(=O)CF)[C@H]1NC(C)=O | 228 | – | – | –
CCC(CC)O[C@@H]1C=C(C(=O)O)C[C@H](NC(=O)CCc2ccccc2)[C@H]1NC(C)=O | – | 19.1 | – | –
CCCCCC(=O)N[C@H]1CC(C(=O)O)=C[C@@H](OC(CC)CC)[C@@H]1NC(C)=O | – | 33.2 | – | –
CCC(CC)O[C@@H]1C=C(C(=O)O)C[C@H](NC(=O)Cc2c[nH]c3ccccc23)[C@H]1NC(C)=O | – | 47.3 | 12.8 | –

From ChEMBL document CHEMBL4251557 (Eur J Med Chem, 2017)
